Assay results reported in US11873499B2, “Methods of increasing nutrient use efficiency” (Institute of Genetics and Developmental Biology Chinese …, priority 2018, dated 2024).

What was measured:
[1] = tested on: OsAMT1.1 and OsGS1.2 promoters; assay: ChIP-PCR OsGRF4-mediated enrichment of GCGG-containing promoter fragments; format: in vivo, rice; conditions: treated with GA and/or PAC; FIG. 4c
Source text: Data shown as mean±s.e.m. (n=9). b, Relative root mRNA abundance in plants treated with GA and/or paclobutrazol (PAC). Data shown as mean±s.e.m. (n=3). c, Extent of ChIP-PCR OsGRF4-mediated enrichment of GCGG-containing promoter fragments from OsAMT1.1 (fragment 5) and OsGS1.2 (fragment 2) (shown in FIG. 2i) varies in response to treatment with GA and/or PAC. Data shown as mean±s.e.m. (n=3). d, BiFC assays reveal mutual interactions between SLR1, OsGRF4 and OsGIF1 in nuclei of tobacco leaf epidermal cell nuclei. Scale bar, 60 μm. e, Co-IP experiments with Flag-tagged SLR1 and HA-tagged OsGRF4 or HA-tagged OsGIF1. f, FRET images. Donor group: OsGIF1-CFP only; Acceptor group: OsGRF4-YFP only; FRET groups: OsGIF1-CFP and OsGRF4-YFP with and without SLR1. Scale bar, 200 μm. g, Mean N-FRET data for OsGIF1-CFP and OsGRF4-YFP channels. Data shown as mean±s.e.m. (n=6). […] OsGRF4-activated promotion of pOsAMT1.1 and pOsGS1.2 promoter::Luciferase fusion constructs is enhanced by OsGIF1 and inhibited by SLR1. Data shown as mean±s.e.m. (n=6). […]
˜2 g of two-week-old seedlings of transgenic p35S::flag-OsGRF4^ngr2 rice plants were fixed with 1% formaldehyde under vacuum for 15 min at 20-25° C., and then homogenized in liquid nitrogen. […] The reverse-crosslinked and precipitated DNA then served as template for quantitative RT-PCR.

[2] = tested on: OsAMT1.1 and OsGS1.2 mRNA; assay: qRT-PCR relative root mRNA abundance in plants treated with GA and/or PAC; format: in vivo, rice; conditions: FIG. 4b
Source text: (§1) Data shown as mean±s.e.m. (n=9). b, Relative root mRNA abundance in plants treated with GA and/or paclobutrazol (PAC). Data shown as mean±s.e.m. (n=3). c, Extent of ChIP-PCR OsGRF4-mediated enrichment of GCGG-containing promoter fragments from OsAMT1.1 (fragment 5) and OsGS1.2 (fragment 2) (shown in FIG. 2i) varies in response to treatment with GA and/or PAC. Data shown as mean±s.e.m. (n=3). d, BiFC assays reveal mutual interactions between SLR1, OsGRF4 and OsGIF1 in nuclei of tobacco leaf epidermal cell nuclei. Scale bar, 60 μm. e, Co-IP experiments with Flag-tagged SLR1 and HA-tagged OsGRF4 or HA-tagged OsGIF1. f, FRET images. Donor group: OsGIF1-CFP only; Acceptor group: OsGRF4-YFP only; FRET groups: OsGIF1-CFP and OsGRF4-YFP with and without SLR1. Scale bar, 200 μm. g, Mean N-FRET data for OsGIF1-CFP and OsGRF4-YFP channels. Data shown as mean±s.e.m. (n=6). […] OsGRF4-activated promotion of pOsAMT1.1 and pOsGS1.2 promoter::Luciferase fusion constructs is enhanced by OsGIF1 and inhibited by SLR1. Data shown as mean±s.e.m. (n=6). Statistical analyses used Duncan's multiple range tests, the same lowercase letter denotes non-significant difference between means (P>0.05; panels a-c, and i).
Total RNAs were extracted from different rice plant organs using the TRIzol reagent (Invitrogen), and then treated with RNase-free DNase I (Invitrogen) according to the manufacturer's protocol. […]

[3] = tested on: NJ6 and NJ6-sd1 rice plants; assay: 15N uptake analysis (root 15NH4+ uptake rate) in rice plants treated with GA and/or PAC; format: in vivo; conditions: FIG. 4a; for 15NH4+ uptake rate: 100 μM GA (GA3) and/or 2 μM paclobutrazol (PAC)
Source text: as §1
Hydroponic culture conditions were modified from those of Liu (2004)^32. Seeds were disinfected in 20% sodium hypochlorite solution for 30 min, thoroughly washed with deionized water, and then germinated in moist Perlite. 7-day-old seedlings were then selected and transplanted to PVC pots containing 40 L+N nutrient solution (1.25 mM NH4NO3, 0.5 mM NaH2PO4·2H2O, 0.75 mM K2SO4, 1 mM CaCl2), 1.667 mM MgSO4.7H2O, 40 μM Fe-EDTA (Na), 19 μM H3BO3, 9.1 μM MnSO4·H2O, 0.15 μM ZnSO4·7H2O, 0.16 μM CuSO4, and 0.52 μM […], pH 5.5). […]
Following growth in hydroponic culture for 4 weeks, rice root ^15NO3^− and ^15NH4^+ influx measurements were as described elsewhere^37,38. […] Roots and shoots were dried overnight at 80° C., and the ^15N content was measured using the Isoprime 100 (Elementar, Germany).

[4] = tested on: pOscycA1;1 and pOscdc2Os-3 promoters; assay: Transient transactivation assay (promoter::Luciferase) in rice protoplasts; format: cell-based; conditions: FIG. 5f
Source text: Data shown as mean±s.e.m. (n=3). Abundances expressed relative to the level in NJ6-sd1. b, ChIP-PCR assays. Diagram depicts the OsPsbS1, OsTPS1 and OsSWEET11 promoters and regions used for ChIP-PCR. c, Transactivation assays. Data shown as mean±s.e.m. (n=9). d, Relative abundances of mRNAs transcribed from cell-cycle regulatory genes. Data shown as mean±s.e.m. (n=3). Abundances expressed relative to the level in NJ6-sd1. e, ChIP-PCR assays. Diagram depicts the OscycA1.1 and Oscdc2Os-3 promoters and regions used for Chl P-PCR. f, Transactivation assays. Data shown as mean±s.e.m. (n=12). Statistical analyses used Duncan's multiple range tests, the same lowercase letter denotes a non-significant difference between means (P>0.05).
˜3-kb DNA promoter fragments from each of OsAMT1.1, OsAMT1.2, OsGS1.2, OsGS2, OsNADH-GOGAT2, OsFd-GOGAT, OsCAB1, OsTPS1, OsSWEET11, OscycA1;1 or Oscdc2Os-3 were amplified from NJ6, and then subcloned into a pUC19 vector containing the firefly LUC reporter gene driven by the 35S minimal TATA box and 5×GAL4 binding elements, thus generating reporter plasmids containing specific promoters fused to LUC. The full-length OsGRF4 cDNA was amplified and fused to sequence encoding GAL4BD, thus generating the effector plasmid pRTBD-OsGRF4. Transient transactivation assays were performed using rice protoplasts as described elsewhere^36. […]

[5] = tested on: Glutamine synthase; assay: Glutamine synthase (GS) activity in roots and shoots of treated rice plants; format: in vivo; conditions: roots and shoots of 2-week-old rice plants; 100 μM GA (GA3); FIG. 13
Procedure: Data shown as mean±s.e.m. (n=3). b, GS activities in shoots of plants treated with 100 μM GA (GA3) and/or 2 μM paclobutrazol (PAC), genotypes as indicated. Data shown as mean±s.e.m. (n=3).
Glutamine synthase and nitrate reductase activities were respectively determined with the Glutamine Synthetase Kit (Solarbio LIFE SCIENCES, BC0910) and the Nitrate Reductase Kit (Solarbio LIFE SCIENCES, BC0080) following the manufacturer's instructions.

[6] = tested on: OsGRF4 mRNA; assay: OsGRF4 mRNA abundance, effect of GA and PAC; format: in vivo, rice; conditions: FIG. 15e, f
Source text: In the absence of GA, SLR1 inhibits OsGRF4-OsGIF1 promotion of OsGRF4 transcription. In the presence of GA, SLR1 is destroyed via proteasome-mediated degradation, this promoting OsGRF4-OsGIF1 activated OsGRF4 transcription.
Total RNAs were extracted from different rice plant organs using the TRIzol reagent (Invitrogen), and then treated with RNase-free DNase I (Invitrogen) according to the manufacturer's protocol. Full-length cDNA was then reverse-transcribed using a cDNA synthesis kit (TRANSGEN, AE311). Subsequent qRT-PCR was performed according to the manufacturer's instructions (TRANSGEN, AQ101), using three independent RNA preparations as biological replicates. Rice Actin2 gene transcripts were used as a reference.

OsGRF4-OsGIF1 complex activation of transcription from pOscycA1;1 and pOscdc2Os-3 promoters [4] | SMILES | ChIP-PCR enrichment of GCGG motif-containing fragments from the OsAMT1.1 and OsGS1.2 promoters [1] | OsAMT1.1 and OsGS1.2 mRNA abundances [2] | 15NH4+ uptake rate [3] | GS activity [5] | effect on the PAC-caused reduction of 15NH4+ uptake ([3]; GA together with PAC) | OsGRF4 mRNA abundance [6]
– | CC(C)(C)[C@@H](O)[C@@H](Cc1ccc(Cl)cc1)n1cncn1 (racemic) [PAC, paclobutrazol] | reduces | reduced | reduces | – | – | –
promotes | C=C1C[C@]23C[C@@]1(O)CC[C@H]2[C@@]12C=C[C@H](O)[C@@](C)(C(=O)O1)[C@H]2[C@@H]3C(=O)O [GA, Gibberellic acid] | promotes | increased | promotes | promotes | abolishes this effect | GA-regulated
